The values below come from US7169763B2, “Cytochrome P450 3A inhibitors and enhancers” (priority 2002, dated 2007).

The series deals with CYP3A. The series can be described thus: Determination of CYP3A activity by erythromycin demethylation method (rat liver homogenate/microsomes). The conditions noted are these: for inhibitory effects on rat liver CYP3A (in words): summary of Table 1; for enhancing effects on rat hepatic CYP3A (in words): summary of Table 2. Also on record: CYP3A Activity (percentage of control): dose or concentration left out as unconfirmed.

[1] abbreviates: inhibitor concentration 0.004, Table 1 Inhibition.
Where [2] appears, read: inhibitor concentration 0.04, Table 1 Inhibition.
The mark [3] stands for this setting: inhibitor concentration 0.4, Table 1 Inhibition.
Where [4] appears, read: inhibitor concentration 0.1, Table 1 Inhibition.
Setting [5] is: inhibitor concentration 1.55, Table 1 Inhibition.

On to `CC(Cc1ccc(O)c(O)c1)C(C)Cc1ccc(O)c(O)c1` (stereo not shown) [Nordihydroguaiaretic Acid], for which the “inhibitory effects on rat liver CYP3A (in words)” value (“inhibitory effects” below) is listed as “particularly effective”. The “CYP3A Activity (percentage of control)” value under setting [1] is recorded as 71.26 ± 1.95 percentage of control. Moreover, the “CYP3A Activity (percentage of control)” value under setting [2] is recorded as 60.28 ± 1.95 percentage of control. The “CYP3A Activity (percentage of control)” value under setting [3] is on record as 42.53 ± 0.49 percentage of control. Moreover, the “CYP3A Activity (percentage of control)” value (inhibitor concentration 3.09, Table 1 Inhibition) is listed as 8.96 ± 1.79 percentage of control.
On to `O=c1c(O[C@@H]2O[C@H](CO)[C@@H](O)[C@H](O)[C@H]2O)c(-c2ccc(O)c(O)c2)oc2cc(O)cc(O)c12` [isoquercitrin], for which the “CYP3A Activity (percentage of control)” value runs as follows: under setting [1], 64.62 ± 1.53 percentage of control; under setting [2], 66.83 ± 5.03 percentage of control; (inhibitor concentration 0.2, Table 1 Inhibition) 51.46 ± 6.68 percentage of control.
Regarding `O=c1c(O)c(-c2ccc(O)c(O)c2)oc2cc(O)cc(O)c12` [quercetin], the “CYP3A Activity (percentage of control)” value is 75.76 ± 7.97 percentage of control under setting [1], 77.52 ± 15.98 percentage of control under setting [2] and 91.62 ± 0.76 percentage of control under setting [3].
Regarding `O=c1c(O)c(-c2ccc(O)cc2)oc2cc(O)cc(O)c12` [kaempferol], the “CYP3A Activity (percentage of control)” value is 111.35 ± 27.88 percentage of control (enhancer concentration 1.46, Table 2 Enhancement); 73.03 ± 2.30 percentage of control under setting [1]; 76.57 ± 3.83 percentage of control under setting [2]; 80.11 ± 8.11 percentage of control under setting [3].
As to `O=c1cc(-c2ccccc2)oc2c1ccc1ccccc12` [α-Naphthoflavone], the “CYP3A Activity (percentage of control)” value (inhibitor concentration 1.24, Table 1 Inhibition) is on record as 43.52 ± 2.93 percentage of control.
`O=c1cc(-c2ccccc2)oc2cc(O)c(O)c(O)c12` [baicalein]: the “CYP3A Activity (percentage of control)” value is recorded as 84.66 ± 3.04 percentage of control under setting [1], 81.59 ± 4.76 percentage of control under setting [2] and 64.47 ± 4.75 percentage of control under setting [4].
On to `COc1ccc(-c2coc3cc(O)ccc3c2=O)cc1` [formononetin], for which the “enhancing effects on rat hepatic CYP3A (in words)” value (“enhancing effects” below) is given as “particularly effective”. Where the note is “enhancer concentration 0.123, Table 2 Enhancement”, the “CYP3A Activity (percentage of control)” value is 113.74 ± 8.87 percentage of control. For the same compound, the “CYP3A Activity (percentage of control)” value under setting [1] is reported as 78.78 ± 2.76 percentage of control. Moreover, the “CYP3A Activity (percentage of control)” value under setting [2] is on record as 92.06 ± 0.77 percentage of control. In addition, under setting [4], the “CYP3A Activity (percentage of control)” value is recorded as 70.37 ± 5.79 percentage of control.
Take `Oc1cc(O)c2c(c1)O[C@H](c1ccc(O)c(O)c1)[C@@H](O)C2` (relative stereo) [(+)-catechin, 2R-trans-2-(3,4-dihydroxyphenyl)-3,4-dihydro-2H-1-benopyran-3,5,7-triol]: the “inhibitory effects” value was “particularly effective”. Besides, the “CYP3A Activity (percentage of control)” value under setting [1] is recorded as 59.31 ± 2.94 percentage of control. Under setting [2], the “CYP3A Activity (percentage of control)” value is reported as 62.70 ± 8.53 percentage of control. Further, under setting [3], the “CYP3A Activity (percentage of control)” value is 45.42 ± 6.13 percentage of control.
Turning to Luteolin-7-glycoside, the “enhancing effects” value is “particularly effective”. Under “enhancer concentration 0.004, Table 2 Enhancement”, the “CYP3A Activity (percentage of control)” value is given as 122.89 ± 40.06 percentage of control. Besides, where the note is “enhancer concentration 0.1, Table 2 Enhancement”, the “CYP3A Activity (percentage of control)” value is 113.09 ± 5.99 percentage of control. In addition, the “CYP3A Activity (percentage of control)” value (inhibitor concentration 0.0078, Table 1 Inhibition) was 46.68 ± 0.17 percentage of control. The “CYP3A Activity (percentage of control)” value under setting [2] is recorded as 98.71 ± 19.74 percentage of control.
As for `O=c1cc(-c2ccc(O)cc2)oc2cc(O)cc(O)c12` [apigenin], the “enhancing effects” value is “particularly effective”. The “CYP3A Activity (percentage of control)” value (enhancer concentration 0.22, Table 2 Enhancement) is listed as 108.62 ± 1.28 percentage of control. Further, the “CYP3A Activity (percentage of control)” value under setting [1] was 52.96 ± 1.15 percentage of control. Under setting [2], the “CYP3A Activity (percentage of control)” value was 54.64 ± 5.16 percentage of control. For the same compound, under setting [4], the “CYP3A Activity (percentage of control)” value was 59.94 ± 2.50 percentage of control.
Turning to `CC(C)[C@@H](C)/C=C/[C@@H](C)[C@H]1CC[C@H]2C3=CC=C4C[C@@H](O)CC[C@]4(C)[C@H]3CC[C@]12C` [ergosterol], the “CYP3A Activity (percentage of control)” value by setting is: under setting [1], 64.59 ± 3.34 percentage of control; under setting [2], 63.71 ± 11.57 percentage of control; under setting [3], 59.57 ± 5.41 percentage of control.
`CC1(C)CC[C@]2(C(=O)O)CC[C@]3(C)C(=CC[C@@H]4[C@@]5(C)CC[C@H](O)C(C)(C)[C@@H]5CC[C@]43C)[C@@H]2C1` [Oleanolic acid]: the “CYP3A Activity (percentage of control)” value is, setting by setting: (inhibitor concentration 0.522, Table 1 Inhibition) 55.95 ± 4.45 percentage of control; (inhibitor concentration 77.07, Table 1 Inhibition) 44.64 ± 7.92 percentage of control.
Turning to `COc1ccc([C@@H]2CC(=O)c3c(O)cc(O)cc3O2)cc1O` [hesperetin], the “inhibitory effects” value was “particularly effective”. The “CYP3A Activity (percentage of control)” value under setting [1] is given as 84.66 ± 3.04 percentage of control. The “CYP3A Activity (percentage of control)” value under setting [2] is reported as 75.89 ± 3.31 percentage of control. For the same compound, the “CYP3A Activity (percentage of control)” value under setting [3] was 48.25 ± 4.62 percentage of control.
As for `CC1(C)[C@@H](O[C@H]2O[C@H](C(=O)O)[C@@H](O)[C@H](O)[C@H]2O[C@@H]2O[C@H](C(=O)O)[C@@H](O)[C@H](O)[C@H]2O)CC[C@]2(C)[C@H]3C(=O)C=C4[C@@H]5C[C@@](C)(C(=O)O)CC[C@]5(C)CC[C@@]4(C)[C@]3(C)CC[C@@H]12` [Glycyrrhizin], the “CYP3A Activity (percentage of control)” value (inhibitor concentration 0.269, Table 1 Inhibition) is listed as 42.96 ± 3.75 percentage of control.
Take `O=c1cc(-c2ccccc2)oc2ccc3ccccc3c12` [β-Naphthoflavone]: for the setting “inhibitor concentration 0.87, Table 1 Inhibition”, the “CYP3A Activity (percentage of control)” value is 42.41 ± 4.08 percentage of control.
Take `CCCCCCCCCCCCO` [Lauryl alcohol]: the “inhibitory effects” value is listed as “particularly effective”. Under “inhibitor concentration 739.88, Table 1 Inhibition”, the “CYP3A Activity (percentage of control)” value is on record as 18.58 ± 1.46 percentage of control.
Turning to `O=c1ccc2ccc(O)cc2o1` [umbelliferone], the “CYP3A Activity (percentage of control)” value is on record as 89.00 ± 12.02 percentage of control under setting [1]; 84.87 ± 6.93 percentage of control under setting [2]; 90.00 ± 4.20 percentage of control under setting [3]; 76.22 ± 2.73 percentage of control (inhibitor concentration 1.84, Table 1 Inhibition); 98.85 ± 14.19 percentage of control (inhibitor concentration 5.43, Table 1 Inhibition); 90.33 ± 1.63 percentage of control (inhibitor concentration 16.96, Table 1 Inhibition).
In the case of `C[C@@H]1O[C@@H](Oc2c(-c3ccc(O)c(O)c3)oc3cc(O)cc(O)c3c2=O)[C@H](O)[C@H](O)[C@H]1O` [quercitrin], the “CYP3A Activity (percentage of control)” value is recorded as 55.06 ± 5.34 percentage of control under setting [1], 73.56 ± 5.96 percentage of control under setting [2] and 98.67 ± 7.51 percentage of control under setting [3].
As for `Oc1cc(O)c2c(c1)O[C@@H](c1ccc(O)c(O)c1)[C@@H](O)C2` [(+)-epicatechin], the “CYP3A Activity (percentage of control)” value reads like this: (inhibitor concentration 0.45, Table 1 Inhibition) 14.66 ± 7.66 percentage of control; (inhibitor concentration 1.41, Table 1 Inhibition) 23.29 ± 5.28 percentage of control; under setting [5], 27.96 ± 5.07 percentage of control.
Turning to `C=C[C@H]1[C@H](O[C@@H]2O[C@H](CO)[C@@H](O)[C@H](O)[C@H]2O)OC=C2C(=O)OCC[C@]21O` [swertiamarin], the “CYP3A Activity (percentage of control)” value is 79.71 ± 1.76 percentage of control under setting [1], 67.88 ± 0.49 percentage of control under setting [2] and 65.63 ± 1.29 percentage of control under setting [3].
Regarding `CC1=CCC(C(C)(C)O)CC1` (stereo not drawn) [α-terpineol], the “CYP3A Activity (percentage of control)” value (inhibitor concentration 501.93, Table 1 Inhibition) was 9.29 ± 1.07 percentage of control.
In the case of `COc1ccc([C@@H]2CC(=O)c3c(O)cc(O[C@@H]4O[C@H](CO[C@@H]5O[C@@H](C)[C@H](O)[C@@H](O)[C@H]5O)[C@@H](O)[C@H](O)[C@H]4O)cc3O2)cc1O` [hesperidin], the “inhibitory effects” value is “particularly effective”. The “CYP3A Activity (percentage of control)” value under setting [1] is reported as 24.05 ± 5.06 percentage of control. Also, the “CYP3A Activity (percentage of control)” value under setting [2] is 103.79 ± 6.37 percentage of control. Moreover, the “CYP3A Activity (percentage of control)” value under setting [3] is on record as 80.75 ± 4.18 percentage of control.
Turning to `O=c1cc(-c2ccc(O)c(O)c2)oc2cc(O)cc(O)c12` [Luteolin], the “CYP3A Activity (percentage of control)” value is, setting by setting: under setting [1], 88.22 ± 0.00 percentage of control; under setting [2], 94.10 ± 10.37 percentage of control; under setting [3], 106.51 ± 8.16 percentage of control; (inhibitor concentration 1.56, Table 1 Inhibition) 36.32 ± 1.26 percentage of control.
With `O=C1C[C@@H](c2ccc(O)cc2)Oc2cc(O)cc(O)c21` [Nariagenin], the “CYP3A Activity (percentage of control)” value reads like this: under setting [1], 81.63 ± 5.21 percentage of control; under setting [2], 62.37 ± 12.33 percentage of control; under setting [3], 60.54 ± 15.51 percentage of control; under setting [5], 47.07 ± 9.87 percentage of control.
Consider `CC(=O)OCCCc1ccccc1` [3-phenylpropyl acetate], for which the “CYP3A Activity (percentage of control)” value runs as follows: under setting [1], 60.33 ± 2.18 percentage of control; under setting [2], 70.50 ± 0.59 percentage of control; under setting [3], 53.89 ± 4.43 percentage of control.
